From patent publication EP1561465A2, “Methods of use of fluoroquinolone compounds against bacteria” (LG Life Sciences, Ltd., priority 1999, dated 2001)
≈ marks a conversion by molar mass, not a printed value.

What was measured:
Assay type in all cases: cell-based
[1] = test system: Yersinia enterocolitica; assay: MIC by agar dilution (NCCLS M7-A4), 288 enteropathogenic isolates, eight quinolones; conditions: Yersinia enterocolitica (n = 22)
[2] = test system: Aeromonas spp.; assay: as above; conditions: Aeromonas spp. (n = 16)
[3] = test system: Campylobacter jejuni; assay: MIC by agar dilution (NCCLS M7-A4), 5% sheep blood, microaerophilic 48 h; conditions: Campylobacter jejuni (n=91)
[4] = test system: Moraxella catarrhalis; assay: MIC by agar dilution (NCCLS), 411 isolates Buenos Aires 1998-99; conditions: Moraxella catarrhalis (n = 59)
[5] = test system: Streptococcus pyogenes; assay: as above; conditions: Streptococcus pyogenes (n = 69)
[6] = test system: Streptococcus pneumoniae; assay: MIC by NCCLS reference broth microdilution, 450 respiratory tract pathogens; conditions: Streptococcus pneumoniae
[7] = test system: Staphylococcus aureus; assay: as above
[8] = test system: Klebsiella pneumoniae; assay: as above; conditions: for MIC50 / MIC90: Klebsiella pneumoniae
[9] = test system: Haemophilus influenzae; assay: MIC by broth microdilution (NCCLS), dried MicroScan panels, clinical isolates 1998-1999; conditions: for MIC90: Haemophilus influenzae
[10] = test system: Haemophilus influenzae; assay: MIC by two-fold serial agar dilution, Sensitivity Disk agar-N (Kitasato isolates); conditions: Haemophilus influenzae (24)
[11] = test system: Moraxella catarrhalis; assay: as above; conditions: Moraxella catarrhalis (22)
[12] = test system: Streptococcus pyogenes; assay: MIC by NCCLS broth microdilution, 1100 Japanese clinical isolates 1997-1998; conditions: Streptococcus pyogenes (n=51)
[13] = test system: Enterococcus faecium; assay: as above; conditions: for MIC50 / MIC90: Enterococcus faecium (n=39); for MIC: Enterococcus faecium
[14] = test system: Escherichia coli; assay: as above; conditions: for MIC50 / MIC90: Escherichia coli
[15] = test system: Citrobacter freundii; assay: as above; conditions: for MIC50: Citrobacter freundii; for MIC90 / MIC Range: Citrobacter freundii (n=39)
[16] = test system: Klebsiella oxytoca; assay: as above; conditions: Klebsiella oxytoca (n=40)
[17] = test system: Providencia rettgeri; assay: as above; conditions: for MIC50: Providencia rettgeri; for MIC90 / MIC Range: Providencia rettgeri (n=12)
[18] = Streptococcus pneumoniae (n = 100)
[19] = erythromycin resistant M phenotype (n = 16)
[20] = erythromycin resistant MLSB phenotype (n = 16)
[21] = penicillin intermediate (n = 16)
[22] = penicillin susceptible (n = 20)
[23] = β-lactamase positive and erythromycin resistant (n = 10)
[24] = extended spectrum β-lactamase negative (n = 30)
[25] = extended spectrum β-lactamase positive (n = 20)
[26] = Haemophilus influenzae (300 isolates)
[27] = Enterococcus faecium (vanA) vancomycin resistant, strain TMS1
[28] = Enterococcus faecium (vanA) vancomycin resistant, strain TMS2
[29] = Enterococcus faecium (vanA) vancomycin resistant, strain TMS3
[30] = Enterococcus faecium (vanA) vancomycin resistant, strain TMS4
[31] = Enterococcus faecium (vanA) vancomycin resistant, strain TMS5
[32] = Enterococcus laecium (van B) vancomycin resistant, strain TMS6
[33] = Enterococcus laecium (van B) vancomycin resistant, strain TMS7
[34] = Escherichia coli ciprofloxacin resistant (n=5)
[35] = Escherichia coli ciprofloxacin susceptible (n=37)
[36] = Escherichia coli ciprofloxacin resistant (n=5), values marked *: MIC80 value

For C[C@H]1COc2c(N3CCN(C)CC3)c(F)cc3c(=O)c(C(=O)O)cn1c23 [Levofloxacin, levofloxacin], the “% Susceptible” value [1] was 100%, the MIC50 [1] was 0.06 µg/mL (≈ 0.166 µM) and the MIC90 [1] was 0.06 µg/mL (≈ 0.166 µM). The “MIC Range” value [1] was 0.03 to 0.5 µg/mL, the “% Susceptible” value [2] was 100% and the MIC50 [2] was ≤ 0.015 µg/mL. For the same compound, the MIC90 [2] was ≤ 0.015 µg/mL, the “MIC Range” value [2] was ≤0.015 to 0.06 µg/mL and the “% Susceptible” value [3] was 31.86%. The MIC50 [3] was 8 µg/mL (≈ 22.1 µM), the MIC90 [3] was 32 µg/mL (≈ 88.6 µM) and the “MIC Range” value [3] was 0.06 to 128 µg/mL. For the same compound, the “MIC Range” value [4] was ≤0.004 to 0.03 µg/mL, the MIC90 ([4]; read-out: MIC90) was 0.03 µg/mL (≈ 0.083 µM) and the “MIC Range” value [5] was 0.25 to 2 µg/mL. It also gave an MIC [6, 18] of 0.25 to 2 µg/mL (≈ 0.692 to 5.53 µM), an MIC50 [6, 18] of 1 µg/mL (≈ 2.77 µM) and an MIC90 [6, 18] of 1 µg/mL (≈ 2.77 µM). The MIC [6, 19] was 1 to 2 µg/mL (≈ 2.77 to 5.53 µM), the MIC50 [6, 19] was 1 µg/mL (≈ 2.77 µM) and the MIC90 [6, 19] was 1 µg/mL (≈ 2.77 µM). For the same compound, the MIC [6, 20] was 0.5 to 2 µg/mL (≈ 1.38 to 5.53 µM), the MIC50 [6, 20] was 1 µg/mL (≈ 2.77 µM) and the MIC90 [6, 20] was 1 µg/mL (≈ 2.77 µM). The MIC ([6]; multi-drug resistant (n = 16)) was 0.5 to 1 µg/mL (≈ 1.38 to 2.77 µM), the MIC50 ([6]; multi-drug resistant (n = 16)) was 1 µg/mL (≈ 2.77 µM) and the MIC90 ([6]; multi-drug resistant (n = 16)) was 1 µg/mL (≈ 2.77 µM). The MIC [6, 21] was 0.5 to 1 µg/mL (≈ 1.38 to 2.77 µM), the MIC50 [6, 21] was 1 µg/mL (≈ 2.77 µM) and the MIC90 [6, 21] was 1 µg/mL (≈ 2.77 µM). For the same compound, the MIC ([6]; penicillin resistant (n = 18)) was 0.5 to 2 µg/mL (≈ 1.38 to 5.53 µM), the MIC50 ([6]; penicillin resistant (n = 18)) was 0.5 µg/mL (≈ 1.38 µM) and the MIC90 ([6]; penicillin resistant (n = 18)) was 1 µg/mL (≈ 2.77 µM). For the same compound, the MIC [6, 22] was 0.25 to 1 µg/mL (≈ 0.692 to 2.77 µM), the MIC50 [6, 22] was 1 µg/mL (≈ 2.77 µM) and the MIC90 [6, 22] was 1 µg/mL (≈ 2.77 µM). The MIC ([7]; Staphylococcus aureus (n = 50)) was 0.03 to 2 µg/mL (≈ 0.083 to 5.53 µM), the MIC50 ([7]; Staphylococcus aureus (n = 50)) was 1 µg/mL (≈ 2.77 µM) and the MIC90 ([7]; Staphylococcus aureus (n = 50)) was 2 µg/mL (≈ 5.53 µM). The MIC ([7]; β-lactamase negative (n = 20)) was 0.03 to 2 µg/mL (≈ 0.083 to 5.53 µM), the MIC50 ([7]; β-lactamase negative (n = 20)) was 2 µg/mL (≈ 5.53 µM) and the MIC90 ([7]; β-lactamase negative (n = 20)) was 2 µg/mL (≈ 5.53 µM). The MIC ([7]; β-lactamase positive (n = 20)) was 1 to 2 µg/mL (≈ 2.77 to 5.53 µM), the MIC50 ([7]; β-lactamase positive (n = 20)) was 1 µg/mL (≈ 2.77 µM) and the MIC90 ([7]; β-lactamase positive (n = 20)) was 2 µg/mL (≈ 5.53 µM). For the same compound, the MIC50 [7, 23] was 1 µg/mL (≈ 2.77 µM), the MIC90 [7, 23] was 2 µg/mL (≈ 5.53 µM) and the “MIC Range” value ([8]; Klebsiella pneumoniae (n = 50)) was 0.15 to 1 µg/mL. The MIC50 ([8]; Klebsiella pneumoniae (n = 50)) was 0.06 µg/mL (≈ 0.166 µM), the MIC90 ([8]; Klebsiella pneumoniae (n = 50)) was 0.5 µg/mL (≈ 1.38 µM) and the MIC50 [8, 24] was 0.06 µg/mL (≈ 0.166 µM). For the same compound, the MIC90 [8, 24] was 0.12 µg/mL (≈ 0.332 µM), the MIC50 [8, 25] was 0.5 µg/mL (≈ 1.38 µM) and the MIC90 [8, 25] was 0.5 µg/mL (≈ 1.38 µM). For the same compound, the “MIC Range” value [8, 24] was 0.015 to 0.5 µg/mL, the “MIC Range” value [8, 25] was 0.06 to 1 µg/mL and the MIC50 [9, 26] was ≤ 0.015 µg/mL. For the same compound, the “MIC Range” value [9, 26] was ≤0.015 to 0.5 µg/mL, the MIC90 [9, 26] was 0.03 µg/mL (≈ 0.083 µM) and the MIC90 ([9]; β-lactamase negative (234)) was 0.03 µg/mL (≈ 0.083 µM). It also gave an MIC90 ([9]; β-lactamase positive (66)) of 0.03 µg/mL (≈ 0.083 µM), an MIC50 [10] of 0.031 µg/mL (≈ 0.0858 µM) and an MIC90 [10] of 0.031 µg/mL (≈ 0.0858 µM). The “MIC Range” value [10] was 0.016 to 0.031 µg/mL, the MIC50 [11] was 0.063 µg/mL (≈ 0.174 µM) and the MIC90 [11] was 0.063 µg/mL (≈ 0.174 µM). The “MIC Range” value [11] was 0.031 to 0.063 µg/mL, the MIC90 [12] was 2 µg/mL (≈ 5.53 µM) and the “MIC Range” value [12] was 0.5 to 2 µg/mL. The MIC50 [13] was 32 µg/mL (≈ 88.6 µM), the MIC90 [13] was 128 µg/mL (≈ 354 µM) and the MIC [13, 27] was 64 µg/mL (≈ 177 µM). It also gave an MIC [13, 28] of 2 µg/mL (≈ 5.53 µM), an MIC [13, 29] of 32 µg/mL (≈ 88.6 µM) and an MIC [13, 30] of 32 µg/mL (≈ 88.6 µM). It also gave an MIC [13, 31] of 4 µg/mL (≈ 11.1 µM), an MIC [13, 32] of 32 µg/mL (≈ 88.6 µM) and an MIC [13, 33] of 32 µg/mL (≈ 88.6 µM). For the same compound, the “MIC Range” value [14, 34] was 4 to 128 µg/mL, the “MIC Range” value [14, 35] was ≤0.008 to 0.25 µg/mL and the MIC50 [14, 34] was 16 µg/mL (≈ 44.3 µM). The MIC90 [14, 36] was 16 µg/mL (≈ 44.3 µM), the MIC50 [14, 35] was 0.032 µg/mL (≈ 0.0886 µM) and the MIC90 [14, 35] was 0.063 µg/mL (≈ 0.174 µM). For the same compound, the MIC50 [15] was 0.125 µg/mL (≈ 0.346 µM), the MIC90 [15] was 1 µg/mL (≈ 2.77 µM) and the “MIC Range” value [15] was 0.016 to 1 µg/mL. For the same compound, the MIC50 [16] was 0.063 µg/mL (≈ 0.174 µM), the MIC90 [16] was 4 µg/mL (≈ 11.1 µM) and the “MIC Range” value [16] was 0.016 to 16 µg/mL. The MIC50 [17] was 0.125 µg/mL (≈ 0.346 µM), the MIC90 [17] was 8 µg/mL (≈ 22.1 µM) and the “MIC Range” value [17] was 0.125 to 8 µg/mL.
In the case of NC1CCN(c2nc3c(cc2F)c(=O)c(C(=O)O)cn3-c2ccc(F)cc2F)C1 (centres unmarked) [Tosufloxacin, tosufloxacin], the MIC90 [12] is reported as 1 µg/mL (≈ 2.47 µM), the “MIC Range” value [12] is reported as 0.063 to 1 µg/mL and the MIC50 ([12]; read-out: MIC50) is reported as 0.25 µg/mL (≈ 0.618 µM). For the same compound, the MIC50 [13] was > 16 µg/mL, the MIC90 [13] was > 16 µg/mL and the MIC [13, 27] was > 16 µg/mL. The MIC [13, 28] was 2 µg/mL (≈ 4.95 µM), the MIC [13, 29] was > 16 µg/mL and the MIC [13, 30] was > 16 µg/mL. The MIC [13, 31] was 4 µg/mL (≈ 9.89 µM), the MIC [13, 32] was > 16 µg/mL and the MIC [13, 33] was > 16 µg/mL. For the same compound, the “MIC Range” value [14, 35] was ≤0.008 to 0.25 µg/mL, the MIC50 [14, 34] was 32 µg/mL (≈ 79.1 µM) and the MIC90 [14, 36] was 32 µg/mL (≈ 79.1 µM). The MIC50 [14, 35] was 0.032 µg/mL (≈ 0.0791 µM), the MIC90 [14, 35] was 0.032 µg/mL (≈ 0.0791 µM) and the MIC50 [15] was 0.125 µg/mL (≈ 0.309 µM). The MIC90 [15] was 2 µg/mL (≈ 4.95 µM), the “MIC Range” value [15] was 0.016 to 2 µg/mL and the MIC50 [16] was 0.032 µg/mL (≈ 0.0791 µM). The MIC90 [16] was 4 µg/mL (≈ 9.89 µM), the “MIC Range” value [16] was ≤0.008 to 16 µg/mL and the MIC50 [17] was 0.125 µg/mL (≈ 0.309 µM). The MIC90 [17] was 8 µg/mL (≈ 19.8 µM) and the “MIC Range” value [17] was 0.063 to 8 µg/mL.
